Results as given in patent US7491794B2, “Macrocyclic compounds as inhibitors of viral replication” (Intermune, Inc., priority 2003, dated 2009).

Key:
[1] = from 1R-{[1-(2S-tert-Butoxycarbonylamino-non-8-enoyl)-4R-hydroxy-pyrrolidine-2S-carbonyl]-amino}-2S-vinyl-cyclopropanecarboxylic acid ethyl ester; rcm bond; 15-membered ring; Hoveyda catalyst (0.25 equiv); DCE; 10.0 mM; 50.0 °C
[2] = from C=CCCCCC[C@H](NC(=O)OC(C)(C)C)C(=O)N1C[C@H](O)C[C@H]1C(=O)N[C@]1(C(=O)OCC)C[C@H]1C=C; rcm bond; Hoveyda catalyst; DCE; 10.0 mM; 50.0 °C; 16.0 h
[3] = Human hepatocyte incubation assay (stability in vitro); format: in vitro ADME; settings: human hepatocytes
[4] = Dog hepatocyte incubation assay (stability in vitro); format: in vitro ADME; settings: dog hepatocytes
[5] = system: panel of other serine proteases; assay: Selectivity against a panel of other serine proteases; format: biochemical
hERG channel = hERG channel (Homo sapiens, UniProt Q12809); assay: Inhibition of hERG channel activity; settings: highest concentrations tested (10 μM)
hERG channel, sequence (Q12809 whole entry, canonical isoform): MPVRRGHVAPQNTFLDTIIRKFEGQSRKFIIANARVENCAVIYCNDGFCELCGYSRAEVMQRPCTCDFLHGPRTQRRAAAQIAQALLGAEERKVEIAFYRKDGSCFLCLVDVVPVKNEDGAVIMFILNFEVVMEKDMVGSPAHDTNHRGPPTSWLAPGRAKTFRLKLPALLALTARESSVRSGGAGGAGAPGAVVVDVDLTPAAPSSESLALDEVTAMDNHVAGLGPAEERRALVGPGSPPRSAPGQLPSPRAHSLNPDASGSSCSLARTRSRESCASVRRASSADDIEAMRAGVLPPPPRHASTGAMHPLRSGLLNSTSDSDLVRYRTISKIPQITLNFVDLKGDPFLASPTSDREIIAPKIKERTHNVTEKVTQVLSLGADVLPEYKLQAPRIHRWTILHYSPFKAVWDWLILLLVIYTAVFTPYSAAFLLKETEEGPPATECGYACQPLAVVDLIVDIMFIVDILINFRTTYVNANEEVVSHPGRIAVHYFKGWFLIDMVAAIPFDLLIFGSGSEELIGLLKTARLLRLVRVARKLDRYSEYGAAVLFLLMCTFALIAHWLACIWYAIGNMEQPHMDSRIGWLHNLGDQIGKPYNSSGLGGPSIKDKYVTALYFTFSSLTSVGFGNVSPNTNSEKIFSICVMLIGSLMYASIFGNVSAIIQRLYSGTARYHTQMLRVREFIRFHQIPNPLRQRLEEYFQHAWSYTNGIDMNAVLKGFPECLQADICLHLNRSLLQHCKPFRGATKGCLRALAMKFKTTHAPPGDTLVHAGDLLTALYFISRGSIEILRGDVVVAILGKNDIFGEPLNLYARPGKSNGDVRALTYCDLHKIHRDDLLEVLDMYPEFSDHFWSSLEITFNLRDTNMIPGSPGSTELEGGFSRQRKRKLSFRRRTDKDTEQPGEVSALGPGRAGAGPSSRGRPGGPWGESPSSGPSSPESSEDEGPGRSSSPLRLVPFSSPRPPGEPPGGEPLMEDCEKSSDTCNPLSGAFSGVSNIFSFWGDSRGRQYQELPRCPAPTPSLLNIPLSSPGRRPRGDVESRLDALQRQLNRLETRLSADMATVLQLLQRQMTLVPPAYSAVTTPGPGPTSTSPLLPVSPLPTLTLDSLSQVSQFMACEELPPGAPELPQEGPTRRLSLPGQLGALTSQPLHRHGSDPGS

Cytochrome P450 isoforms = assay: Inhibition of Cytochrome P450 isoforms; format: in vitro ADME; settings: highest concentrations tested (10 μM)
[6] = Rat hepatocyte incubation assay (stability in vitro); format: in vitro ADME; settings: rat hepatocytes
[7] = system: HCV sub-genomic replicon, GS4.3; assay: Quantitation by ELISA of NPTII in the HCV sub-genomic replicon, GS4.3, Section B; format: cell-based; settings: Hepatitis C virus; read-out: replicon EC50 value
In short: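 GS4.3 cells (HuH-7 carrying HCV 1377/NS3-3′ replicon) were treated 72 h at 37 °C with inhibitors in 3-fold dilutions, 1% DMSO, no G418. Lysate NPTII was measured by ELISA (TMB, 450 nm). Signal as % of DMSO control; EC50 from 4-parameter fit.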

[8] = in vivo, po
Method: (§1) Compounds were initially synthesized and tested for potency (IC50) in a fluorogenic NS3/4 protease assay and cell-based HCV replicon system as described in Example 8 above. […] These leads were then further optimized for drug-like physical properties and administered in oral doses in Rattus sp. to assess liver, heart and plasma concentrations.
Compounds were tested for liver clearance over time following a single 3 mg/kg oral dose in rats.
as §1, with “described” for “described in Example 8”

[9] = Toxicological assessment in rats, up to 30 mg/kg orally BID for seven days; settings: Rattus sp.
NS3-NS4 protease = target: T1, NS3-NS4 protease (Hepatitis C virus genotype 1a, UniProt P27958); assay: NS3-NS4 protease assay / NS3 inhibition assay, Section C; format: biochemical; settings: read-out: NS3-NS4 IC50
T1 construct: Recombinant E. coli or Baculovirus full-length NS3 was diluted to 3.33 μM with assay buffer; made in house; host or cells: E. coli or baculovirus (BV) system
T1 sequence (P27958 1027-1657): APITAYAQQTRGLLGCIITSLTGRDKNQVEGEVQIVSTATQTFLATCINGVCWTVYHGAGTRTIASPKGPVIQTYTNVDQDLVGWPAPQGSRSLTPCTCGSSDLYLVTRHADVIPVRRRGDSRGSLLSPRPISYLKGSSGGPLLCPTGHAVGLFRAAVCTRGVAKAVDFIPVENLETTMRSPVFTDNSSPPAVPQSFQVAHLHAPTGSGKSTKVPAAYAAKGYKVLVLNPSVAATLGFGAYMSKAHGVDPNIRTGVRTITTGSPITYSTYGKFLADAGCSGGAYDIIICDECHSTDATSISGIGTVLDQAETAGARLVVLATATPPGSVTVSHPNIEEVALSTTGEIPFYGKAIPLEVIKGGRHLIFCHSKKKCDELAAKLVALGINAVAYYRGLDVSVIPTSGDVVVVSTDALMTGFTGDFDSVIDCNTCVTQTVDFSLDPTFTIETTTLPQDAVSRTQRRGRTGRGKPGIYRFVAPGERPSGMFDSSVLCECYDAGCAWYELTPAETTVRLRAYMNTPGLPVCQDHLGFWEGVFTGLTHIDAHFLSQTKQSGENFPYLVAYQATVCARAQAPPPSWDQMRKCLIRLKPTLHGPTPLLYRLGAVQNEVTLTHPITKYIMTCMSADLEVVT
In short: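 Full-length NS3 (E. coli, 2 nM, or Baculovirus, 3 nM, in assay) precomplexed with excess NS4A-2 peptide, pre-incubated with compound 10 minutes at room temperature, then RETS1 substrate added. Fluorescence (ex 335/em 495 nm) read kinetically over 30 minutes; IC50s from four-parameter fit converted to Ki via Ki=IC50/(1+[S]/Km).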

[10] = system: HCV sub-genomic replicon, GS4.3; assay: Quantitation by ELISA of NPTII in the HCV sub-genomic replicon, GS4.3, Section C; format: cell-based; settings: Hepatitis C virus; GS4.3 cells, 72 h incubation; read-out: EC50

CCOC(=O)[C@@]12C[C@H]1C=CCCCCC[C@H](NC(=O)OC(C)(C)C)C(=O)N1C[C@H](O)C[C@H]1C(=O)N2
ring closure, isolated yield [1]: 52% | ring closure, yield of all isomers [2]: 26%

CC(C)(C)OC(=O)N[C@H]1CCCCC/C=C\[C@@H]2C[C@@]2(C(=O)NS(=O)(=O)C2CC2)NC(=O)[C@@H]2C[C@@H](OC(=O)N3CCc4ccccc4C3)CN2C1=O [AR261408]
stability in vitro in human hepatocyte incubation assay [3]: exhibited stability | stability in vitro in dog hepatocyte incubation assay [4]: exhibited stability | selectivity against a panel of other serine proteases [5]: high degree of selectivity | inhibition of hERG channel activity (hERG channel): no significant inhibition | inhibition of Cytochrome P450 isoforms (Cytochrome P450 isoforms): no significant inhibition | stability in vitro in rat hepatocyte incubation assay [6]: exhibited stability | EC50 [7]: ~2 nM

CC(C)(C)OC(=O)N[C@H]1CCCCC/C=C\[C@@H]2C[C@@]2(C(=O)NS(=O)(=O)C2CC2)NC(=O)[C@@H]2C[C@@H](OC(=O)N3Cc4ccccc4C3)CN2C1=O [AR294381]
stability in vitro in human hepatocyte incubation assay [3]: exhibited stability | stability in vitro in dog hepatocyte incubation assay [4]: exhibited stability | selectivity against a panel of other serine proteases [5]: high degree of selectivity | inhibition of hERG channel activity (hERG channel): no significant inhibition | inhibition of Cytochrome P450 isoforms (Cytochrome P450 isoforms): no significant inhibition | stability in vitro in rat hepatocyte incubation assay [6]: exhibited stability | EC50 [7]: ~2 nM

CC(C)(C)OC(=O)N[C@H]1CCCCCCC[C@@H]2C[C@@]2(C(=O)NS(=O)(=O)C2CC2)NC(=O)[C@@H]2C[C@@H](OC(=O)N3Cc4ccccc4C3)CN2C1=O [AR333833]
stability in vitro in human hepatocyte incubation assay [3]: exhibited stability | stability in vitro in dog hepatocyte incubation assay [4]: exhibited stability | selectivity against a panel of other serine proteases [5]: high degree of selectivity | inhibition of hERG channel activity (hERG channel): no significant inhibition | inhibition of Cytochrome P450 isoforms (Cytochrome P450 isoforms): no significant inhibition | stability in vitro in rat hepatocyte incubation assay [6]: exhibited stability | EC50 [7]: ~2 nM

CC(C)(C)OC(=O)N[C@H]1CCCCC/C=C\[C@@H]2C[C@@]2(C(=O)NS(=O)(=O)C2CC2)NC(=O)[C@@H]2C[C@@H](OC(=O)N3Cc4cccc(F)c4C3)CN2C1=O [AR334191]
stability in vitro in human hepatocyte incubation assay [3]: exhibited stability | stability in vitro in dog hepatocyte incubation assay [4]: exhibited stability | selectivity against a panel of other serine proteases [5]: high degree of selectivity | inhibition of hERG channel activity (hERG channel): no significant inhibition | inhibition of Cytochrome P450 isoforms (Cytochrome P450 isoforms): no significant inhibition | stability in vitro in rat hepatocyte incubation assay [6]: exhibited stability | EC50 [7]: ~2 nM | heart levels relative to liver concentrations in the same animals [8]: up to two orders of magnitude lower | plasma levels relative to liver concentrations in the same animals [8]: up to two orders of magnitude lower | safety margin above the presumptive efficacious dose (3 mg/kg) ([9]; 30 mg/kg BID for seven days vs 3 mg/kg): ≥ 10 fold | mortality, change in weight, abnormalities in clinical chemistries ([9]; 30 mg/kg orally BID for 7 days): no mortality, change in weight, or abnormalities in clinical chemistries were observed | toxicity ([9]; dosed for seven days at 30 mg/kg BID): did not display toxicity

COc1ccc(NS(=O)(=O)NC(=O)[C@@]23C[C@H]2/C=C\CCCCC[C@H](NC(=O)OC(C)(C)C)C(=O)N2C[C@H](OC(=O)N4Cc5ccccc5C4)C[C@H]2C(=O)N3)cc1 [Compound 129, (1S,4R,6S,14S,18R)-1,3-Dihydro-isoindole-2-carboxylic acid 14-tert-butoxycarbonylamino-4-(4-methoxyphenylaminosulfonyl-aminocarbonyl)-2,15-dioxo-3,16-diaza-tricyclo[14.3.0.0^4,6]nonadec-7-en-18-yl ester]
IC50 (NS3-NS4 protease): < 100 nM | EC50 [10]: < 100 nM

Cc1ccc(NS(=O)(=O)NC(=O)[C@@]23C[C@H]2/C=C\CCCCC[C@H](NC(=O)OC(C)(C)C)C(=O)N2C[C@H](OC(=O)N4Cc5ccccc5C4)C[C@H]2C(=O)N3)cc1 [Compound 130, (1S,4R,6S,14S,18R)-1,3-Dihydro-isoindole-2-carboxylic acid 14-tert-butoxycarbonylamino-4-(4-methylphenylaminosulfonyl-aminocarbonyl)-2,15-dioxo-3,16-diaza-tricyclo[14.3.0.0^4,6]nonadec-7-en-18-yl ester]
IC50 (NS3-NS4 protease): < 100 nM | EC50 [10]: < 100 nM

CC(C)(C)OC(=O)N[C@H]1CCCCC/C=C\[C@@H]2C[C@@]2(C(=O)NS(=O)(=O)Nc2ccc(C#N)cc2)NC(=O)[C@@H]2C[C@@H](OC(=O)N3Cc4ccccc4C3)CN2C1=O [Compound 131, (1S,4R,6S,14S,18R)-1,3-Dihydro-isoindole-2-carboxylic acid 14-tert-butoxycarbonylamino-4-(4-cyanophenylaminosulfonyl-aminocarbonyl)-2,15-dioxo-3,16-diaza-tricyclo[14.3.0.0^4,6]nonadec-7-en-18-yl ester]
IC50 (NS3-NS4 protease): < 100 nM | EC50 [10]: < 100 nM

CC(C)(C)OC(=O)N[C@H]1CCCCC/C=C\[C@@H]2C[C@@]2(C(=O)NS(=O)(=O)Nc2ccc(C(F)(F)F)cc2)NC(=O)[C@@H]2C[C@@H](OC(=O)N3Cc4ccccc4C3)CN2C1=O [Compound 132, (1S,4R,6S,14S,18R)-1,3-Dihydro-isoindole-2-carboxylic acid 14-tert-butoxycarbonylamino-4-(4-trifluoromethylphenylaminosulfonyl-aminocarbonyl)-2,15-dioxo-3,16-diaza-tricyclo[14.3.0.0^4,6]nonadec-7-en-18-yl ester]
IC50 (NS3-NS4 protease): < 100 nM | EC50 [10]: < 100 nM

CC(C)(C)OC(=O)N[C@H]1CCCCC/C=C\[C@@H]2C[C@@]2(C(=O)NS(=O)(=O)NC2CCC2)NC(=O)[C@@H]2C[C@@H](OC(=O)N3Cc4ccccc4C3)CN2C1=O [Compound 133, (1S,4R,6S,14S,18R)-1,3-Dihydro-isoindole-2-carboxylic acid 14-tert-butoxycarbonylamino-4-(cyclobutylaminosulfonyl-aminocarbonyl)-2,15-dioxo-3,16-diaza-tricyclo[14.3.0.0^4,6]nonadec-7-en-18-yl ester]
IC50 (NS3-NS4 protease): < 100 nM | EC50 [10]: < 100 nM

CC(C)(C)OC(=O)N[C@H]1CCCCC/C=C\[C@@H]2C[C@@]2(C(=O)NS(=O)(=O)NC2CCCC2)NC(=O)[C@@H]2C[C@@H](OC(=O)N3Cc4ccccc4C3)CN2C1=O [Compound 134, (1S,4R,6S,14S,18R)-1,3-Dihydro-isoindole-2-carboxylic acid 14-tert-butoxycarbonylamino-4-(cyclopentylaminosulfonyl-aminocarbonyl)-2,15-dioxo-3,16-diaza-tricyclo[14.3.0.0^4,6]nonadec-7-en-18-yl ester]
IC50 (NS3-NS4 protease): < 100 nM | EC50 [10]: < 100 nM

CC(C)(C)OC(=O)N[C@H]1CCCCC/C=C\[C@@H]2C[C@@]2(C(=O)NS(=O)(=O)NC2CCCCC2)NC(=O)[C@@H]2C[C@@H](OC(=O)N3Cc4ccccc4C3)CN2C1=O [Compound 135, (1S,4R,6S,14S,18R)-1,3-Dihydro-isoindole-2-carboxylic acid 14-tert-butoxycarbonylamino-4-(cyclohexylaminosulfonyl-aminocarbonyl)-2,15-dioxo-3,16-diaza-tricyclo[14.3.0.0^4,6]nonadec-7-en-18-yl ester]
IC50 (NS3-NS4 protease): < 100 nM | EC50 [10]: < 100 nM
